Laboratory results from PMC6979384, “Characterization of the plant homeodomain (PHD) reader family for their histone tail interactions” (Epigenetics & Chromatin, 2020).
Where no end group is shown, it is not given here.

How the values were obtained:
Assay in all cases: Histone peptide microarray
Assay type in all cases: binding, human
[1] = tested on: KDM5B (3); conditions: KDM5B (3), GST-tagged; arrays performed twice, n of 4
Outline: (§1)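 Using an optimized microarray protocol, purified GST-tagged PHD fingers were incubated at 0.5 μM on 293 histone peptides with single or multiple modifications, and array signal was recorded as the average of 4 replicates.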

[2] = tested on: PHF23; conditions: PHF23, GST-tagged; arrays performed twice, n of 4
Outline: as §1

[3] = tested on: KDM4C (TTP); conditions: KDM4C (TTP), GST-tagged; arrays performed twice, n of 4
Outline: as §1

[4] = tested on: BPTF (PB); conditions: BPTF (PB), GST-tagged; arrays performed twice, n of 4
Outline: as §1

[5] = tested on: TAF3; conditions: TAF3, GST-tagged; arrays performed twice, n of 4
Outline: as §1

[6] = tested on: BAZ2B; conditions: BAZ2B, GST-tagged; arrays performed twice, n of 4
Outline: as §1

[7] = tested on: PHF2; conditions: PHF2, GST-tagged; arrays performed twice, n of 4
Outline: as §1

[8] = tested on: CHD4 (PPCC); conditions: CHD4 (PPCC), GST-tagged; arrays performed twice, n of 4
Outline: as §1

[9] = tested on: ING2; conditions: ING2, GST-tagged; arrays performed twice, n of 4
Outline: as §1

[10] = tested on: AIRE (PP); conditions: AIRE (PP), GST-tagged; arrays performed twice, n of 4
Outline: as §1

[11] = tested on: ING5; conditions: ING5, GST-tagged; arrays performed twice, n of 4
Outline: as §1

[12] = tested on: PHF21A; conditions: PHF21A, GST-tagged; arrays performed twice, n of 4
Outline: as §1

[13] = tested on: DPF2 (PPC2W2); conditions: DPF2 (PPC2W2), GST-tagged; arrays performed twice, n of 4
Outline: as §1

[14] = tested on: KDM5A (3); conditions: KDM5A (3), GST-tagged; arrays performed twice, n of 4
Outline: as §1

[15] = tested on: MORC3 (CW); conditions: MORC3 (CW), GST-tagged; arrays performed twice, n of 4
Outline: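 GST-PHD reader, 0.5 μM, probed on 293-peptide histone array (single/combinatorial PTMs); optimized array protocol; signal = mean ± SD, n = 4.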

[16] = tested on: SP140L; conditions: SP140L, GST-tagged; arrays performed twice, n of 4
Outline: as §1

[17] = tested on: TRIM66 (PB); conditions: TRIM66 (PB), GST-tagged; arrays performed twice, n of 4
Outline: as §1

[18] = tested on: ING1; conditions: ING1, GST-tagged; arrays performed twice, n of 4
Outline: as §1

[19] = tested on: MLL5; conditions: MLL5, GST-tagged; arrays performed twice, n of 4
Outline: as §1

[20] = tested on: KDM5B (1); conditions: KDM5B (1), GST-tagged; arrays performed twice, n of 4
Outline: as §1

[21] = tested on: DIDO1; conditions: DIDO1, GST-tagged; arrays performed twice, n of 4
Outline: as §1

[22] = tested on: KDM5A (1); conditions: KDM5A (1), GST-tagged; arrays performed twice, n of 4
Outline: as §1

[23] = tested on: RAG2; conditions: RAG2, GST-tagged; arrays performed twice, n of 4
Outline: as §1

[24] = tested on: PHRF1 (RP); conditions: PHRF1 (RP), GST-tagged; arrays performed twice, n of 4
Outline: as §1

[25] = tested on: KDM7A; conditions: KDM7A, GST-tagged; arrays performed twice, n of 4
Outline: as §1

[26] = tested on: ING3; conditions: ING3, GST-tagged; arrays performed twice, n of 4
Outline: as §1

[27] = tested on: ING4; conditions: ING4, GST-tagged; arrays performed twice, n of 4
Outline: as §1

[28] = tested on: CHD5 (PPCC); conditions: CHD5 (PPCC), GST-tagged; arrays performed twice, n of 4
Outline: as §1

[29] = tested on: PHF8; conditions: PHF8, GST-tagged; arrays performed twice, n of 4
Outline: as §1

[30] = tested on: PHF13; conditions: PHF13, GST-tagged; arrays performed twice, n of 4
Outline: as §1

[31] = tested on: CHD5 (PCC); conditions: CHD5 (PCC), GST-tagged; arrays performed twice, n of 4
Outline: as §1

| Substance | Array Heatmap value (peptide array binding signal) [1] | Array Heatmap value (peptide array binding signal) [2] | Array Heatmap value (peptide array binding signal) [3] | Array Heatmap value (peptide array binding signal) [4] | Array Heatmap value (peptide array binding signal) [5] | Array Heatmap value (peptide array binding signal) [6] | Array Heatmap value (peptide array binding signal) [7] | Array Heatmap value (peptide array binding signal) [8] | Array Heatmap value (peptide array binding signal) [9] | Array Heatmap value (peptide array binding signal) [10] | Array Heatmap value (peptide array binding signal) [11] | Array Heatmap value (peptide array binding signal) [12] | Array Heatmap value (peptide array binding signal) [13] | Array Heatmap value (peptide array binding signal) [14] | Array Heatmap value (peptide array binding signal) [15] | Array Heatmap value (peptide array binding signal) [16] | Array Heatmap value (peptide array binding signal) [17] | Array Heatmap value (peptide array binding signal) [18] | Array Heatmap value (peptide array binding signal) [19] | Array Heatmap value (peptide array binding signal) [20] | further results |
| --- | --- | --- | --- | --- | --- | --- | --- | --- | --- | --- | --- | --- | --- | --- | --- | --- | --- | --- | --- | --- | --- |
| H4K12ac + K20ac: H4 1-23 | 0.5497 | 0.5334 | 0.5414 | 0.3685 | 0.2733 | 0.5161 | 0.4316 | 0.6135 | 0.5908 | 0.5505 | 0.3842 | 0.5207 | 0.6377 | 0.3797 | 0.3391 | 0.3715 | 0.5961 | 0.4954 | 0.5351 | 0.6403 | Array Heatmap value (peptide array binding signal) [21]: 0.604; Array Heatmap value (peptide array binding signal) [22]: 0.5024; Array Heatmap value (peptide array binding signal) [23]: 0.2498; Array Heatmap value (peptide array binding signal) [24]: 0.4; Array Heatmap value (peptide array binding signal) [25]: 0.4248; Array Heatmap value (peptide array binding signal) [26]: 0.496; Array Heatmap value (peptide array binding signal) [27]: 0.4824; Array Heatmap value (peptide array binding signal) [28]: 0.5873; Array Heatmap value (peptide array binding signal) [29]: 0.3219; Array Heatmap value (peptide array binding signal) [30]: 0.6532; Array Heatmap value (peptide array binding signal) [31]: 0.8332 |
| H4K12ac + KQ5,8,16,20: H4 1-23 (SGRGQGGQGLGK(Ac)GGAQRHRQVLR; UniProt P62805 2-24, looked up, variant K5Q K8Q K16Q K20Q) | 0.4684 | 0.5714 | 0.445 | 0.3429 | 0.2598 | 0.4631 | 0.578 | 0.5868 | 0.6036 | 0.4232 | 0.347 | 0.4355 | 0.6849 | 0.4384 | 0.3596 | 0.3381 | 0.6047 | 0.553 | 0.5826 | 0.6598 | Array Heatmap value (peptide array binding signal) [21]: 0.7417; Array Heatmap value (peptide array binding signal) [22]: 0.4416; Array Heatmap value (peptide array binding signal) [23]: 0.2487; Array Heatmap value (peptide array binding signal) [24]: 0.4941; Array Heatmap value (peptide array binding signal) [25]: 0.3252; Array Heatmap value (peptide array binding signal) [26]: 0.4727; Array Heatmap value (peptide array binding signal) [27]: 0.4387; Array Heatmap value (peptide array binding signal) [28]: 0.5319; Array Heatmap value (peptide array binding signal) [29]: 0.3437; Array Heatmap value (peptide array binding signal) [30]: 0.611; Array Heatmap value (peptide array binding signal) [31]: 0.8241 |
| H4K12me1: H4 1-23 [Peptide H4K12me1] | 0.384 | 0.4708 | 0.4116 | 0.2963 | 0.2302 | 0.3991 | 0.4095 | 0.5189 | 0.5919 | 0.4018 | 0.2899 | 0.4184 | 0.6545 | 0.3966 | 0.309 | 0.3238 | 0.515 | 0.4711 | 0.4865 | 0.6336 | Array Heatmap value (peptide array binding signal) [21]: 0.5928; Array Heatmap value (peptide array binding signal) [22]: 0.4194; Array Heatmap value (peptide array binding signal) [23]: 0.2114; Array Heatmap value (peptide array binding signal) [24]: 0.3919; Array Heatmap value (peptide array binding signal) [25]: 0.3046; Array Heatmap value (peptide array binding signal) [26]: 0.3932; Array Heatmap value (peptide array binding signal) [27]: 0.3881; Array Heatmap value (peptide array binding signal) [28]: 0.4573; Array Heatmap value (peptide array binding signal) [29]: 0.3037; Array Heatmap value (peptide array binding signal) [30]: 0.5207; Array Heatmap value (peptide array binding signal) [31]: 0.7543 |
